Measured values published in the NIST ThermoML archive (doi:10.1016/j.fluid.2007.07.017).
Numbers after ± are expanded uncertainties.

Test: xn = mol fraction of the nth substance listed
Details: Liquid, Vibrating tube method

## C=C [ethene] + CCCCO
283.65 K, x1 = 0.17
  mass density: 781.4 ± 0.6 kg/m3
283.65 K, x1 = 0.224
  mass density: 767.7 ± 0.5 kg/m3
283.65 K, x1 = 0.322
  mass density: 743.7 ± 0.6 kg/m3
283.65 K, x1 = 0.401
  mass density: 718.9 ± 0.7 kg/m3
283.65 K, x1 = 0.47
  mass density: 695.8 ± 0.8 kg/m3
283.65 K, x1 = 0.545
  mass density: 660.9 ± 1 kg/m3
283.65 K, x1 = 0.98
  mass density: 323.2 ± 1.2 kg/m3
283.65 K, x1 = 0.99
  mass density: 296.6 ± 1.2 kg/m3
283.65 K, x1 = 0.994
  mass density: 287 ± 1.2 kg/m3
290.8 K, x1 = 0.206
  mass density: 768.3 ± 0.6 kg/m3
290.8 K, x1 = 0.265
  mass density: 752.1 ± 0.6 kg/m3
290.8 K, x1 = 0.339
  mass density: 732 ± 0.6 kg/m3
290.8 K, x1 = 0.43
  mass density: 707.5 ± 0.8 kg/m3
290.8 K, x1 = 0.528
  mass density: 664.6 ± 0.9 kg/m3
290.8 K, x1 = 0.622
  mass density: 624.4 ± 1 kg/m3
290.8 K, x1 = 0.655
  mass density: 601.6 ± 1.2 kg/m3
290.8 K, x1 = 0.691
  mass density: 585 ± 1.8 kg/m3
290.8 K, x1 = 0.745
  mass density: 527.5 ± 2.4 kg/m3
